Experiments:
Format in all cases: cell-based, human
[1] = test system: innate immune response genes (TLR3, NF-κB, IFN-β, Stat1, Stat2); experiment: Expression of innate immunity related genes
Description: To gain more insight into the mechanisms by which a retroviral particle could accelerate nuclear reprogramming, we substituted a non-integrating mutant of pMX-GFP by introducing a frameshift mutation near the poi coding region of the retrovirus. This mutant can enter the cell, direct synthesis of intact virus particles that retain reverse transcriptase activity, but cannot integrate newly synthesized viral DNA into the host genome. […] Accordingly, integration of foreign DNA into the host genome is not required for the difference in gene expression between the CPPs and their corresponding viral vectors. Viral infection activates innate immunity, by virtue of interaction with Toll-like receptors (TLRs). The TLRs recognize pathogen-associated molecular patterns (PAMPs) associated with viral protein, lipopolysaccharides, DNA or RNA. We hypothesized that activation of innate immunity through TLRs may be involved in the difference in gene expression. Indeed, we observed that our retroviral vectors (but not the CPPs) activated inflammatory (innate immune response) genes, including the toll-like receptor 3 (TLR3), NF-κB, IFN-β, Stat1 and Stat2 (FIG. 11).
Treatments At 60-70% confluency, BJ fibroblast cells were serum-starved using 1% serum to induce G1 cell cycle arrest. […]

Oct4 and Sox2 promoters = experiment: ChIP of histone H3 trimethylation at Oct4 and Sox2 promoters
Experimental: We hypothesized that TLR3 activation might enhance early transcriptional activation by inducing an open chromatin state, permitting the reprogramming factors to induce an ESC-specific gene expression pattern. Accordingly, we performed ChIP assays to detect trimethylation of histone H3 at lysine 4 (H3K4me3). This epigenetic modification marks transcriptionally active genes. Human fibroblasts were treated with pMXSox2, or with CPPSox2 in the presence of poly I:C or pMXGFP. […] In a similar fashion, we assessed histone H3 at lysine 9 (H3K9me3) in the Oct4 and Sox2 promoters. This epigenetic modification marks transcriptionally silenced genes. […] These studies provided an epigenetic mechanism to explain the effect of TLR3 activation to enhance nuclear reprogramming.
Chromatin Immunoprecipitation and ChIP-qPCR qChIP was performed as previously described (Lim et al., 2009; Peng et al., 2009). For qChIP and qRT-PCR, error estimates are standard deviations. Recovery of genomic DNA as the percentage input was calculated as the ratio of copy numbers in the immunoprecipitate to the input control. Primers of Oct4 and Sox2 promoters were purchased from Cell Signaling.

[2] = test system: heterochromatin protein 1 (HP1); experiment: HP1 distribution (confocal microscopy) and expression (Western)
Experimental: In addition, the changes in methylation status of the Oct4 and Sox2 promoters that were accelerated by TLR3 activation were also associated with an accelerated redistribution of heterochromatin protein 1 (HP1; FIGS. 19A and 19B). HP1 that is bound to methylated H3K9 recruits the methylase Suv39h, leading to further methylation of H3K9, so as to consolidate a repressed state. The redistribution of HP1 induced by poly I:C is consistent with genome-wide epigenetic alterations induced by TLR3 activation. Histone acetylation favors an open chromatin state, maintained by proteins containing histone acetyltransferase (HAT) domains, such as p300 and CBP. NF-κB is a transcriptional effector of TLR3 activation, and interacts with CBP/p300 to positively regulate gene expression. […] This effect was mediated by TLR3, as shRNA knockdown of TLR3 or its adaptor protein TRIF1 reduced the effect of poly I:C on NF-κB activation (FIG. 20).
Heterochromatin protein-1 (HP1) is associated with the closed conformation of chromatin. […] The fact that the current work implicated TRIF signaling likely aligns with the fact that the retrovirus RNA provides adequate TLR3 signaling to trigger NF-κB, IRF3 and IFN. While TLR3 mimicked signaling from the retrovirus vector, other TLR agonists as well as agonists for NOD-like receptors, RIG-1-like receptors, cytosolic DNA sensors and C-type lectin receptors, drive a similar inflammatory response converging on NF-κB, IRF-3 and IFNβ.
Western Blotting Proteins were extracted from BJ fibroblasts by solubilizing the cells in RIPA buffer containing 1× protease inhibitor cocktail. 25 μg of total protein was loaded and resolved on SDSpolyacrylamide gels, transferred to PVDF membranes and probed with the following primary antibodies: anti-HP1α and anti-HDAC (Cell Signaling), and β-actin (Sigma, A5441). Immunoblots were developed with enhanced chemiluminescence reagents (Amersham).

NF-κB = NF-κB luciferase assay; details: BJ fibroblasts; poly IC 300 ng/ml
Experimental: NF-κB Luciferase assay BJ fibroblasts (3×105) were seeded in a 6-well plate and subjected to either pMX-GFP infection, CPP-SOX2 treatment with or without poly IC (300 ng/ml). Cells were transfected with pNF-κB-Luc and pFC-MEKK as a positive control plasmid using Lipofectamine 2000. Twentyfour hours post-transfection, cells were collected for measuring the luciferase activity by the Bright-Glo™ Luciferase Assay System using a luminometer.

[3] = in combination with CPPSox2, day 2

Q: With “Polyinosinicpolycytidylic acid [Poly I:C]” as the substance, how does the “expression of NF-κB and TLR3” value ([1]; BJ fibroblasts) read?
A: The value was “sustained increase”.

Q: And the “expression of inflammatory (innate immune response) genes” value ([1]; human fibroblasts)?
A: Its value is “induces the expression of genes involved in innate immunity”.

Q: What about the “H3K4 trimethylation at the Sox2 promoter” value (Oct4 and Sox2 promoters; CPP-treated fibroblasts) of the same substance?
A: Its value is “accelerated H3K4 trimethylation”.

Q: What about the “H3K9 trimethylation at the Sox2 promoter” value (Oct4 and Sox2 promoters; CPP-treated fibroblasts) of the same substance?
A: Its value is “accelerated the loss of H3K9 trimethylation”.

Q: What about the “H3K4 trimethylation at the Oct4 promoter” value (Oct4 and Sox2 promoters; agent alone, day 2 (time course day 2-6)) of the same substance?
A: Its value is “had no effect”.

Q: And the “H3K4 trimethylation at the Oct4 promoter” value (Oct4 and Sox2 promoters; [3])?
A: The value was “induced changes in H3K4 trimethylation”.

Q: And the “H3K9 trimethylation at the Oct4 promoter” value (Oct4 and Sox2 promoters; [3])?
A: The value was “enhanced the H3K9 trimethylation”.

Q: What about the “distribution of HP1” value ([2]; co-administered with CPP-SOX2) of the same substance?
A: The value was “marked changes in its distribution”.

Q: And the “expression of HP-1α (immunoblot)” value ([2]; day 2 to day 6)?
A: Its value is “unaffected”.

Q: And the “distribution of HP1” value ([2]; in the absence of the CPP)?
A: The value was “no observable redistribution”.

Q: And the “NF-κB activation (luciferase reporter)” value (NF-κB)?
A: The value was “induced NF-κB activation”.

Source: patent US20130202649A1, “ACTIVATION OF INNATE IMMUNITY FOR NUCLEAR REPROGRAMMING OF SOMATIC CELLS” (The Board of Trustees of the Leland Stanford Junior …, priority 2012, published 2013)
